According to ChEMBL document CHEMBL2073768, “Effects of xanthine derivatives on the influx and efflux of doxorubicin in P388 and DOX-resistant P388 leukemia cells” (Toxicol Lett, 2002):

Biological target: ATP-dependent translocase ABCB1 (P-glycoprotein) (Mus musculus, UniProt P21447)
Experiment: TP_TRANSPORTER: inhibition of DOX efflux (DOX: 18? uM, XT-141: 100 uM) in P388/DOX cells
Assay type: functional, cell-based
Conditions: probe DOX (doxorubicin), read-out: Activity

Sequence of ATP-dependent translocase ABCB1 (P-glycoprotein) (P21447 whole entry): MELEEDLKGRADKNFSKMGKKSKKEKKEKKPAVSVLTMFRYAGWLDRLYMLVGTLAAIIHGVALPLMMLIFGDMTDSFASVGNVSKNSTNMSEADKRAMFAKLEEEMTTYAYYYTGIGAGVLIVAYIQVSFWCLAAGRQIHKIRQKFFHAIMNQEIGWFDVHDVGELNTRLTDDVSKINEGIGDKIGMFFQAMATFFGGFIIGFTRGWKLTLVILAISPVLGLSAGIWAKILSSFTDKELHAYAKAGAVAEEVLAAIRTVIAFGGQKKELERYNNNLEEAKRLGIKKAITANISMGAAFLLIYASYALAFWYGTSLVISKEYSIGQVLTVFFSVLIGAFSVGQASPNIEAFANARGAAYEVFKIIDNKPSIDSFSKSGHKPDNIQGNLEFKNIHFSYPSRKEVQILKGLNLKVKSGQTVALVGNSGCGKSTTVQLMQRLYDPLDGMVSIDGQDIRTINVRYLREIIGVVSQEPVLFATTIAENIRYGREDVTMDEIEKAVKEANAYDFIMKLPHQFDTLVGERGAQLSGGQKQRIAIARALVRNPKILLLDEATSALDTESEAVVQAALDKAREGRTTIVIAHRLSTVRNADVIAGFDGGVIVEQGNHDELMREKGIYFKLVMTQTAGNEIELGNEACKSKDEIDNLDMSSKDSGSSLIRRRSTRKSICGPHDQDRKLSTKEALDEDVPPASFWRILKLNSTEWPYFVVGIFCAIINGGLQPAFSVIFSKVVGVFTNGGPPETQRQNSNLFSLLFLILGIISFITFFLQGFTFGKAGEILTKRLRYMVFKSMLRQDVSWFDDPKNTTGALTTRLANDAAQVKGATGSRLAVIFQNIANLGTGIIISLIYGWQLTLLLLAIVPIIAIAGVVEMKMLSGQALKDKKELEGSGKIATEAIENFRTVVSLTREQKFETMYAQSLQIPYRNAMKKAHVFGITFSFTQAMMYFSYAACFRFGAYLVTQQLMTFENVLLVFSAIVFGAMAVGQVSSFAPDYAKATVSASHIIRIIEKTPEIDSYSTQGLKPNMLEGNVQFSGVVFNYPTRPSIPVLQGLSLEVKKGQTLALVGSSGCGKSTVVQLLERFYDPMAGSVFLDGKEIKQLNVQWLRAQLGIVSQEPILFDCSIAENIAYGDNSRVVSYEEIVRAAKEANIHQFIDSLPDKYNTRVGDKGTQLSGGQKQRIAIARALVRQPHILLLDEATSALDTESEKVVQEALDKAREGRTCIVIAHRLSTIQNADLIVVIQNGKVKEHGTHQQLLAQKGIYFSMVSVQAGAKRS

inhibition at 100 µM: 43%
Structure (SMILES): CCCn1c(=O)n(C)c(=O)c2c1ncn2CCCN(C)C
